Columns and labels:
[1] = Viscosity response: fluorescence in glycerin vs methanol (Test Example 1); assay type: physicochemical; conditions: final concentration 1×10^−5 M; for Glycerin/Methanol Fluorescence Intensity Ratio: excited at maximum excitation wavelength of each dye; for Maximum Excitation Wavelength (nm): glycerin and methanol
[2] = Fluorescence emission at different viscosity conditions, diethanol-glycerol mixed solution (Test Example 2); assay type: physicochemical; conditions: 1×10^−5 M, excited at 480 nm
RNA aptamer [3] = test: Optical properties after binding to RNA aptamer (Test Example 4); assay type: biochemical; conditions: for Em/nm / Ex/nm / ε / QY (−): after binding to RNA aptamer; for QY (−): relative method with Rhodamine 6G as the standard; for compound fluorescence after binding to RNA aptamer: excited at a suitable wavelength
RNA aptamer [4] = test: Labeling intracellular RNA aptamer in cells (Test Example 4, FIG. 20A/20B); assay type: cell-based; conditions: for fluorescence of cells expressing the RNA aptamer: FIG. 20A; for fluorescence of cells not expressing the RNA aptamer: FIG. 20B
Source text: FIGS. 20A and 20B are the application of molecular rotors IV-1, IV-2, IV-3, IV-4, IV-5, IV-6, IV-17, IV-18, IV-19, IV-20, IV-21, IV-22 in labeling intracellular RNA aptamer, wherein FIG. 20A are cells expressing the target RNA aptamer, and FIG. 20B are cells not expressing the target RNA aptamer;

mRNA of ACTB = test: Flow detection of mRNA labeling in 293T/17 cells (Test Example 5); assay type: cell-based; conditions: 0.2 μM in PBS, 5 minutes incubation; for background fluorescence in flow detection: 293T/17 control cells
Source text: FIGS. 21A and 21B are a flow detection diagram for molecular rotors IV-21 and IV-41 for labeling mRNA.

CN1C(=O)/C(=C/c2ccc(N(C)CCO)cc2)N=C1/C=C/c1ccc(O)cc1 [IV-20]
Glycerin/Methanol Fluorescence Intensity Ratio [1]: 781
Maximum Excitation Wavelength (nm) [1]: 577 nm
fluorescence intensity at different viscosity conditions [2]: gradually increasing fluorescence intensity
Em/nm (RNA aptamer [3]): 577 nm
Ex/nm (RNA aptamer [3]): 512 nm
ε (RNA aptamer [3]): 25500 M⁻¹ cm⁻¹
QY (−) (RNA aptamer [3]): 0.36
compound fluorescence after binding to RNA aptamer (RNA aptamer [3]): noticeably activated
fluorescence of cells expressing the RNA aptamer (RNA aptamer [4]): bright fluorescence
fluorescence of cells not expressing the RNA aptamer (RNA aptamer [4]): no fluorescence

CN1C(=O)/C(=C/c2ccc(N(C)CCO)cc2)N=C1/C=C/c1ccc(C#N)cc1 [IV-21]
Glycerin/Methanol Fluorescence Intensity Ratio [1]: 655
Maximum Excitation Wavelength (nm) [1]: 624 nm
fluorescence intensity at different viscosity conditions [2]: gradually increasing fluorescence intensity
Em/nm (RNA aptamer [3]): 624 nm
Ex/nm (RNA aptamer [3]): 534 nm
ε (RNA aptamer [3]): 26222 M⁻¹ cm⁻¹
QY (−) (RNA aptamer [3]): 0.28
compound fluorescence after binding to RNA aptamer (RNA aptamer [3]): noticeably activated
fluorescence of cells expressing the RNA aptamer (RNA aptamer [4]): bright fluorescence
fluorescence of cells not expressing the RNA aptamer (RNA aptamer [4]): no fluorescence
labeling of mRNA of ACTB in cell lines expressing target RNA (mRNA of ACTB; 293T/17, flow detection): could specifically label mRNA of ACTB
background fluorescence in flow detection (mRNA of ACTB): no obvious background fluorescence

CN1C(=O)/C(=C/c2ccc(N(C)CCO)cc2)N=C1/C=C/c1ccc(F)cc1 [IV-22]
Glycerin/Methanol Fluorescence Intensity Ratio [1]: 689
Maximum Excitation Wavelength (nm) [1]: 580 nm
fluorescence intensity at different viscosity conditions [2]: gradually increasing fluorescence intensity
Em/nm (RNA aptamer [3]): 580 nm
Ex/nm (RNA aptamer [3]): 522 nm
ε (RNA aptamer [3]): 32000 M⁻¹ cm⁻¹
QY (−) (RNA aptamer [3]): 0.46
compound fluorescence after binding to RNA aptamer (RNA aptamer [3]): noticeably activated
fluorescence of cells expressing the RNA aptamer (RNA aptamer [4]): bright fluorescence
fluorescence of cells not expressing the RNA aptamer (RNA aptamer [4]): no fluorescence

CN1C(=O)/C(=C/c2ccc(N(C)CCO)cc2)N=C1/C=C/c1ccccc1 [IV-41, reference compound]
background fluorescence in flow detection (mRNA of ACTB): higher than that of IV-21

From patent US20230141569A1, “FLUORESCENT DYE, AND PREPARATION METHOD AND USES THEREOF” (FLUORESCENCE DIAGNOSIS (SHANGHAI) BIOTECH COMPANY LTD., priority 2020, published 2023)
